Legend:
hepatoma = settings: one-year oral administration, patients after therapeutic treatment of hepatoma; cited from earlier work
[1] = Stability test of NIK-333 in sealed bottle (peroxide value); assay type: physicochemical; settings: 25° C., sealed bottle in aluminium bag
Description: NIK-333 was filled in a sealed bottle and the bottle was put into an aluminium bag. This sample was stored at 25° C., and after 0, 1, and 3 months, the peroxide values were measured.

Question: Which recurrence of hepatoma (hepatoma) does the source give for `CC(C)=CCC/C(C)=C/CC/C(C)=C/C=C/C(C)=C/C(=O)O` [NIK-333, (2E,4E,6E,10E )-3,7,11,15-Tetramethyl-2,4,6,10,14-hexadecapentaenoic acid] here?
Answer: suppress recurrence of hepatoma

Question: And the safety (hepatoma)?
Answer: high safety

Question: And the “survival rate of the patients” value (hepatoma)?
Answer: increased survival rate of the patients

Question: What about the Peroxide value ([1]; storage period 0 month) of the same molecule?
Answer: 0.4 meq/kg

Question: And the Peroxide value ([1]; storage period 1 month)?
Answer: 6.2 meq/kg

Question: And the Peroxide value ([1]; storage period 3 months)?
Answer: 14.4 meq/kg
